The results in this text go back to article PMC5884507, “A group of Populus trichocarpa DUF231 proteins exhibit differential O-acetyltransferase activities toward xylan” (PLoS ONE, 2018).

Holding throughout (experiment): radiolabelled acetyl transfer, scintillation counting
Common to all, as to format: biochemical
Holding throughout (conditions): 0.1 mM 14C-acetyl-CoA, 50 mM HEPES pH 7.0, 37 C, 4 hr

For experiment [1], the target named is T1, PtrXOAT6 (Populus trichocarpa, UniProt A0A2R4P4M4).
T1 construct: gene XOAT6; lumenal catalytic domain 36-446, transmembrane region removed; Igkappa leader, C-terminal c-myc and His6; secreted by HEK293F, nickel-purified
T1 sequence (A0A2R4P4M4 entry or part of it): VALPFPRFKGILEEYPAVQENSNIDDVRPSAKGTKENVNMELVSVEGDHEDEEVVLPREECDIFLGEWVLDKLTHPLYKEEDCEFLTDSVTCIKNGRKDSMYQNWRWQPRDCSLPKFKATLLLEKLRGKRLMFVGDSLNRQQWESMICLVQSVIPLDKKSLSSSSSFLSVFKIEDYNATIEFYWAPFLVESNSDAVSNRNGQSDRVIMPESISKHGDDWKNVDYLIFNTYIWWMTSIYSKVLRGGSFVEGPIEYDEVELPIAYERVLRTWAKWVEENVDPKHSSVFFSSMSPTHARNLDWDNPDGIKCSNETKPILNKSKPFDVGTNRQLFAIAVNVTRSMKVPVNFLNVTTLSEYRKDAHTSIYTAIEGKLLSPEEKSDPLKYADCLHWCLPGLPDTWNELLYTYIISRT

Experiment [2] has as its target T2, PtrXOAT4 (Populus trichocarpa, UniProt A0A2R4P4M0).
T2 construct: gene XOAT4; lumenal catalytic domain 37-428, transmembrane region removed; Igkappa leader, C-terminal c-myc and His6; secreted by HEK293F, nickel-purified

Experiment [3] concerns the target T3, PtrXOAT7 (Populus trichocarpa, UniProt B9IGB9).
T3 construct: gene XOAT7; lumenal catalytic domain 38-426, transmembrane region removed; Igkappa leader, C-terminal c-myc and His6; secreted by HEK293F, nickel-purified

Experiment [4] concerns the target T4, PtrXOAT8 (Populus trichocarpa, UniProt A0A2R4P4N1).
T4 construct: gene XOAT8; lumenal catalytic domain 33-415, transmembrane region removed; Igkappa leader, C-terminal c-myc and His6; secreted by HEK293F, nickel-purified

The target of experiment [5] is T5, PtrXOAT10 (Populus trichocarpa, UniProt A0A2R4P4N0).
T5 construct: gene XOAT10; lumenal catalytic domain 55-438, transmembrane region removed; Igkappa leader, C-terminal c-myc and His6; secreted by HEK293F, nickel-purified
T5 sequence (A0A2R4P4N0 entry or part of it): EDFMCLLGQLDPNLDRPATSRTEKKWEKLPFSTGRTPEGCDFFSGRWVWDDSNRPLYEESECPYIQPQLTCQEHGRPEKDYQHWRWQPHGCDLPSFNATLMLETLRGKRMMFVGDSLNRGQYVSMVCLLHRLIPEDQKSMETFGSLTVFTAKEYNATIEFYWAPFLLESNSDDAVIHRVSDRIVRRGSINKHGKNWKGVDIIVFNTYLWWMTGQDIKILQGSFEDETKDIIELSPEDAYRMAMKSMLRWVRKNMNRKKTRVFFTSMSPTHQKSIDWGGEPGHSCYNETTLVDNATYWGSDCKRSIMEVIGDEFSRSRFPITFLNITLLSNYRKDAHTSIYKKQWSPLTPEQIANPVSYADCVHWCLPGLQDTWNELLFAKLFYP

The target of experiment [6] is T6, PtrXOAT5 (Populus trichocarpa, UniProt A0A2R4P4M8).
T6 construct: gene XOAT5; lumenal catalytic domain 33-470, transmembrane region removed; Igkappa leader, C-terminal c-myc and His6; secreted by HEK293F, nickel-purified
T6 sequence (A0A2R4P4M8 entry or part of it): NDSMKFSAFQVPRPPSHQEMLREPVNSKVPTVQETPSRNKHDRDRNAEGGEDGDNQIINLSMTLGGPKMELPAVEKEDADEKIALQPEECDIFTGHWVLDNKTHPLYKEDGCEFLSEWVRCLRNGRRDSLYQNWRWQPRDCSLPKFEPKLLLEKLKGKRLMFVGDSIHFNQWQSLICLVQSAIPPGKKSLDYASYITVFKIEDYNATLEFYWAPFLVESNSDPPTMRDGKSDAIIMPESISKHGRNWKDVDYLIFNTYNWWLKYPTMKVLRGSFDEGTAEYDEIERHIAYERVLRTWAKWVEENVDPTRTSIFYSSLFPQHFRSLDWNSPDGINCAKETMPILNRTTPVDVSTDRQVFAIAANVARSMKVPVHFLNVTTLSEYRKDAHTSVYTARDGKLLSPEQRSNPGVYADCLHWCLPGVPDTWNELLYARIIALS

The target of experiment [7] is T7, PtrXOAT9 (Populus trichocarpa, UniProt A0A2K1ZDC4).
T7 construct: gene XOAT9; lumenal catalytic domain 52-437, transmembrane region removed; Igkappa leader, C-terminal c-myc and His6; secreted by HEK293F, nickel-purified
T7 sequence (A0A2K1ZDC4 entry or part of it): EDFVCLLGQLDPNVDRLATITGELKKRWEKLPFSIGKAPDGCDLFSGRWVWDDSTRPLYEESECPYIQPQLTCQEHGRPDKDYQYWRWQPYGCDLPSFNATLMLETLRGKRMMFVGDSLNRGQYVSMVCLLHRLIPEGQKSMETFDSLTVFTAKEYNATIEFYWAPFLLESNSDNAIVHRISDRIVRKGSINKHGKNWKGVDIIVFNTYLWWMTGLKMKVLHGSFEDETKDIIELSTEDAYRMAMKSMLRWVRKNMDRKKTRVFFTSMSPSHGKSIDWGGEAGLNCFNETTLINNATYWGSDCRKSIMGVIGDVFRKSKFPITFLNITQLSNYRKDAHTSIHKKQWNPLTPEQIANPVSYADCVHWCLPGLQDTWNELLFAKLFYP

T3 sequence (B9IGB9 entry or part of it): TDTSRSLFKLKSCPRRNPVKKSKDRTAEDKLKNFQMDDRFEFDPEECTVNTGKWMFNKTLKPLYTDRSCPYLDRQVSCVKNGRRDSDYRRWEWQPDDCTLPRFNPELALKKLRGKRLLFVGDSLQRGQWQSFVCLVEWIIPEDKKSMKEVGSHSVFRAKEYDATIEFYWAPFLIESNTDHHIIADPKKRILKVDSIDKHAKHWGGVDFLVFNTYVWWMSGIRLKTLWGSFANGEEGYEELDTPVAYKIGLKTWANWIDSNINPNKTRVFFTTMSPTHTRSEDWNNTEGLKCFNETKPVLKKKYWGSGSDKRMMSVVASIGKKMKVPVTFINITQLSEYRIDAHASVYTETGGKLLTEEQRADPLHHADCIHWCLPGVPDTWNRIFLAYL
T2 sequence (A0A2R4P4M0 entry or part of it): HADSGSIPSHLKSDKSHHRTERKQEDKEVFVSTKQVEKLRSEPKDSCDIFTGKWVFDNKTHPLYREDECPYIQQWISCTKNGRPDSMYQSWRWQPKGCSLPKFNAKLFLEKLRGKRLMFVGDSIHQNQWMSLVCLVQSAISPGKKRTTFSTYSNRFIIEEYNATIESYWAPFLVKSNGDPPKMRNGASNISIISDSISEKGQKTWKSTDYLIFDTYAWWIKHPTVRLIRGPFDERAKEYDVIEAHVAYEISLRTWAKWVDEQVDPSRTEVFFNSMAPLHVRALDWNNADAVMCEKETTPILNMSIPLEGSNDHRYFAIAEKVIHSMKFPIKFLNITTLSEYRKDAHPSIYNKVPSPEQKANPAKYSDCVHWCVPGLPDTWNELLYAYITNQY
T4 sequence (A0A2R4P4N1 entry or part of it): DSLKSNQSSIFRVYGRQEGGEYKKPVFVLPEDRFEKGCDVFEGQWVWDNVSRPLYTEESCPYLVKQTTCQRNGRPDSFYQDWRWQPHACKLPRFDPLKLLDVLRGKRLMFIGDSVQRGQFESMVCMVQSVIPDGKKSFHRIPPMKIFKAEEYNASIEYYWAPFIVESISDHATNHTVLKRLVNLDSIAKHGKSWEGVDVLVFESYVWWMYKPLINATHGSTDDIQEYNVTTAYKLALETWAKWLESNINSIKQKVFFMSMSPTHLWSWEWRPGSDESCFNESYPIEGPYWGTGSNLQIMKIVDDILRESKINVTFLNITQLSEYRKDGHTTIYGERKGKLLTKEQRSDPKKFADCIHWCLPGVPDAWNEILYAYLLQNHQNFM

Regarding `OC1OC[C@@H](O[C@@H]2OC[C@@H](O[C@@H]3OC[C@@H](O[C@@H]4OC[C@@H](O[C@@H]5OC[C@@H](O[C@@H]6OC[C@@H](O)[C@H](O)[C@H]6O)[C@H](O)[C@H]5O)[C@H](O)[C@H]4O)[C@H](O)[C@H]3O)[C@H](O)[C@H]2O)[C@H](O)[C@H]1O` (stereo partly shown) [Xyl6, xylohexaose], the “radiolabelled acetyl transfer, scintillation counting” value in experiment [1], in experiment [2], in experiment [3], in experiment [4], in experiment [5] and in experiment [6] was “PtrXOAT4 to PtrXOAT10 had a low level of activity” throughout. In addition, the “radiolabelled acetyl transfer, scintillation counting” value in experiment [7] is listed as “PtrXOAT4 to PtrXOAT10 had a low level of activity”.
